Experimental data taken from US10704122B2, “Simple chemical method for the separation of rare earth metals” (THE TRUSTEES OF THE UNIVERSITY OF PENNSYLVANIA, priority 2014, dated 2020).

Assays:
[1] = Air stability observation; type: physicochemical; conditions: solid and solution states
[2] = Solubility in benzene quantified by 1H NMR of saturated C6D6 solutions; type: physicochemical; conditions: 1H NMR against ferrocene internal standard
Procedure: The absence of mixed-metal dimer formation prompted a search for conditions where the dimerization of Nd(TriNOx)THF could be exploited for solubility differences between the Nd and Dy species. […] These solubilities were quantified by ^1H NMR spectroscopy, where saturated C6D6 solutions of the complexes were prepared and measured against a ferrocene internal standard.

Row | solubility in benzene [2] [mM] | Compound | air stability [1]
1 | – | CC(C)(C)N(O)c1ccccc1CN(Cc1ccccc1N(O)C(C)(C)C)Cc1ccccc1N(O)C(C)(C)C [H3TriNOx, tris(2-tert-butylhydroxylaminato)benzylamine] | air stable in both the solid and solution states
2 | 1.2 | Dy[(2-(^tBuNOH)CH2—C6H4)3N]THF [Dy(TriNOx)THF] | –
3 | 60 | Nd[(2-(^tBuNOH)CH2—C6H4)3N]THF [Nd(TriNOx)THF] | –
